Measured values taken from patent publication US4686283A, “Analogs of transforming and epidermal growth factor fragments for therapy and diagnosis” (Syntex (U.S.A.) Inc., priority 1985, dated 1987).
Where a SMILES comes first, the peptide text is derived from it. Bridges are numbered along the chain shown (N, C = ends).

Experiments:
[1] = test system: rabbit anti-TGF α-KLH IgG; experiment: Competitive radioimmunoassay: iodinated rabbit anti-TGF α-KLH IgG preincubated with inhibitor, then bound to BSA-peptide complex coated wells; format: binding; details: no inhibitor 8400 ± 600 cpm
Procedure: A. Rabbit IgG antibodies to the compound [drawing 24] (anti-TGF α-KLH), as prepared in accordance with Example 7, were iodinated by the chloramine-T method. To 1 mg anti-TGF α-KLH antibody in 0.2M phosphate buffer (pH 7.6) was added 20 μl of a 2 mg/ml solution of chloramine-T and 1mCiNa^125 I for 3 minutes at room temperature. 1 mg KI was added and excess free iodine removed by chromatography on a Sephadex G-50 column. The specific activity of the antibodies varied between 200,000 and 400,000 counts per minute (cpm)/μg protein. Flexible polyvinylchloride plates were coated with a 1 mg/ml solution of BSA-peptide complex (prepared in accordance with Example 6A) in phosphate buffered saline (PBS) for 16 hours at 4° C. Plates were countered with a solution containing BSA and 1% Bovine gamma globulin.
These solutions were then added to the coated wells for an additional 2 hours at 37° C. After several washes with PBS containing 0.1% BSA, individual wells were cut apart and counted in a gamma counter.

LE II cells [2] = experiment: Inhibition of TGFα-induced cell proliferation ([3H]-methylthymidine incorporation); format: cell-based, Murine; details: induced by 2 × 10^-9 M TGFα; for % of thymidine incorporation: control 420 ± 30
Procedure: (§1) LE II cells were grown to confluence in 48 well cluster dishes and starved for two days in DMEM containing 0.5% fetal calf serum.
(§2) The percent enhancement of thymidine incorporation was used as the measure of cell proliferation. The lower the percentage of thymidine incorporation, the lower the rate of cell proliferation. Inhibition of EGF-induced cell proliferation by the foregoing compounds is reflected in Table II. Table III gives the inhibition of TGFα-induced cell proliferation.

LE II cells [3] = experiment: Inhibition of EGF-induced cell proliferation ([3H]-methylthymidine incorporation); format: cell-based, Murine; details: induced by 2 × 10^-9 M EGF; for % Enhancement of thymidine incorporation: control 380 ± 20
Procedure: as §1, §2

EGF receptors = molecular target: T1, EGF receptors (Mus musculus, UniProt Q01279); experiment: Competitive antagonism of 125I-EGF binding to LE II cells (Scatchard plots); set-up: species or system Murine; details: in the presence of 20 μg/ml peptide, 4° C.; for apparent association constant for EGF: lower = more effective competitor
T1 construct: endogenous in cells; host or cells: LE II murine lung endothelial cells
Procedure: Murine lung endothelial cells identified as LE II were grown to confluence in 24 well cluster dishes in Dulbecco's minimal essential medium (DMEM) containing 10% fetal calf serum. Cells were washed twice with DMEM containing 1% bovine serum albumin and buffered at pH 7.4 with 50 mM Hepes buffer (DMEM-BSA). […] At the end of the incubation period, cells were washed three times with DMEM-BSA, lysed in 0.1N sodium hydroxide and cell-associated radioactivity was determined in a gamma counter.

Row | apparent association constant for EGF (EGF receptors) | Compound | cpm of iodinated anti-TGF α-KLH IgG bound to coated wells ([1]; inhibitor 10 ng/ml) | cpm of iodinated anti-TGF α-KLH IgG bound to coated wells ([1]; inhibitor 100 ng/ml) | cpm of iodinated anti-TGF α-KLH IgG bound to coated wells ([1]; inhibitor 1000 ng/ml) | % Enhancement of thymidine incorporation, second figure relative to control = 100 (ratio of TGF α fragment/EGF counts per minute) (LE II cells [3]; peptide 10^-5 M) | % Enhancement of thymidine incorporation (LE II cells [3]; peptide 10^-5 M) | % Enhancement of thymidine incorporation, second figure relative to control = 100 (ratio of TGF α fragment/EGF counts per minute) (LE II cells [3]; peptide 10^-6 M) | % Enhancement of thymidine incorporation (LE II cells [3]; peptide 10^-6 M) | % Enhancement of thymidine incorporation, second figure relative to control = 100 (ratio of TGF α fragment/EGF counts per minute) (LE II cells [3]; peptide 10^-7 M) | other results
1 | – | TGFα: native human transforming growth factor alpha, used as inhibitor in the radioimmunoassay | 7600 ± 400 cpm | 5100 ± 700 cpm | 3800 ± 400 cpm | – | – | – | – | – | cpm of iodinated anti-TGF α-KLH IgG bound to coated wells ([1]; inhibitor 1 ng/ml): 8600 ± 800 cpm
2 | 1.5e+10 M⁻¹ | CC(C)[C@@H]1NC(=O)CNC(=O)[C@H](C(C)C)NC(=O)[C@H](Cc2ccc(O)cc2)NC(=O)CNC(=O)[C@H](CO)NC(=O)[C@H](Cc2c[nH]cn2)NC(=O)[C@@H](N)CSSC[C@@H](C(=O)O)NC(=O)[C@H](CCCNC(=N)N)NC1=O [Peptide 1] (H-CHSGYVGVRC-OH; disulfide 1-10) | – | – | – | 70% | 265 ± 15% | 95% | 360 ± 20% | 103% | % of thymidine incorporation, second figure relative to control = 100 (LE II cells [2]; peptide 10^-5 M): 79%; % of thymidine incorporation (LE II cells [2]; peptide 10^-5 M): 330 ± 10%; % of thymidine incorporation, second figure relative to control = 100 (LE II cells [2]; peptide 10^-6 M): 95%; % of thymidine incorporation (LE II cells [2]; peptide 10^-6 M): 400 ± 20%; % of thymidine incorporation, second figure relative to control = 100 (LE II cells [2]; peptide 10^-7 M): 95%; % of thymidine incorporation (LE II cells [2]; peptide 10^-7 M): 400 ± 20%
3 | – | H-Cys-His-Ser-Gly-Tyr-Val-Gly-Val-Arg-Cys-OH (H-CHSGYVGVRC-OH; disulfide 1-10 (inferred)) [TGFα fragment peptide] | – | – | – | – | – | – | – | – | extrapolated saturation binding of 125I-EGF (EGF receptors; one hour, 0.51±0.03 nM in its absence): 0.5 ± 0.02 nM
4 | – | EGF: epidermal growth factor | 8800 ± 400 cpm | 8200 ± 500 cpm | 7600 ± 800 cpm | – | – | – | – | – | cpm of iodinated anti-TGF α-KLH IgG bound to coated wells ([1]; inhibitor 10,000 ng/ml): 7800 ± 600 cpm
5 | 1.5e+10 M⁻¹ | CC(C)[C@@H]1NC(=O)[C@H](Cc2ccc(O)cc2)NC(=O)CNC(=O)[C@H](CO)NC(=O)[C@H](Cc2c[nH]cn2)NC(=O)[C@@H](N)CSSC[C@@H](C(=O)O)NC(=O)[C@H](CCCNC(=N)N)NC(=O)[C@H](C)NC(=O)CNC1=O [Peptide 2] (H-CHSGYVGARC-OH; disulfide 1-10) | – | – | – | 64% | 245 ± 25% | 97% | 370 ± 15% | 100% | % Enhancement of thymidine incorporation (LE II cells [3]; peptide 10^-7 M): 380 ± 20%
